# Test results as given in patent publication US20070135490A1, “Phenetanolamine derivatives” (priority 2003, published 2007).
# Target: T1, human beta-2 receptor (Homo sapiens, UniProt P07550)
# T1 construct: expressed in transfected cells; host or cells: Chinese hamster ovary cells (whole cells or membranes derived from them)
# Assay: Chinese hamster ovary cells co-expressing the human receptor with a reporter gene, cAMP measurement in whole cells or membranes (Method 2)
# Assay type: cell-based
# Conditions: CHO cells or membranes
# Description: Potency of compounds of the invention at the human beta 2, 1 and 3 receptors was also determined using Chinese hamster ovary cells co-expressing the human receptor with a reporter gene. Studies were performed using either whole cells or membranes derived from those cells.
# The three beta-receptors are coupled via the Gs G-protein to cause a simulation of adenylate cyclase resulting in increased levels of cAMP in the cell. For direct cAMP measurements either membranes or cells have been used with either the HitHunter enzyme fragment complementation kit (DiscoveRx) or the FP^2 fluorescence polarisation kit (Perkin Elmer) to quantify the levels of cAMP present. These assays provide a measure of agonist potency and intrinsic activity of the compounds at the various receptors. […]
# In this assay the potency of compounds at the human beta-2 receptor is expressed as a pEC50 value. Compounds of examples 12-26, 28-50 and 52-64 had pEC50 values greather than 6. […] No result is available for the compound of example 51.
row,Compound,pEC50 at the human beta-2 receptor
1,Formic acid compound with 4-((1R)-1-hydroxy-2-{[2-(3-{[3-(2-hydroxyphenyl)propoxy]methyl}phenyl)ethyl]amino}ethyl)-2-(hydroxymethyl)phenol (1:1) [Example 27],less than 6

# Same assay, conditions: CHO cells or membranes, read-out: pEC50 at the human beta-2 receptor (converted)
row,Compound,EC50 [nM]
1,"CS(=O)(=O)c1ccc(COCc2cccc(CCNC[C@H](O)c3ccc(O)c(CO)c3)c2)cc1 [Example 24, Formic acid compound with 2-(hydroxymethyl)-4-[(1R)-1-hydroxy-2-({2-[3-({[4-(methylsulfonyl)benzyl]oxy}methyl)phenyl]ethyl}amino)ethyl]phenol (1:1)]",< 1000
2,"OCc1cc([C@@H](O)CNCCc2cccc(COCCc3ccccc3F)c2)ccc1O [Example 41, Formic acid compound with 4-((1R)-2-{[2-(3-{[2-(2-fluorophenyl)ethoxy]methyl}phenyl)ethyl]amino}-1-hydroxyethyl)-2-(hydroxymethyl)phenol (1:1)]",< 1000
3,"OCc1cc([C@@H](O)CNCCc2cccc(COCCCCc3cccc(O)c3)c2)ccc1O [Example 19, Formic acid compound with 4-((1R)-1-hydroxy-2-{[2-(3-{[4-(3-hydroxyphenyl)butoxy]methyl}phenyl)ethyl]amino}ethyl)-2-(hydroxymethyl)phenol (1:1)]",< 1000
4,"OCc1cc([C@@H](O)CNCCc2cccc(COCc3c(Cl)cccc3Cl)c2)ccc1O [Example 47, Formic acid compound with 4-((1R)-2-{[2-(3-{[(2,6-dichlorobenzyl)oxy]methyl}phenyl)ethyl]amino}-1-hydroxyethyl)-2-(hydroxymethyl)phenol (1:1)]",< 1000
5,"OCc1cc([C@@H](O)CNCCc2cccc(COCCc3ccc(F)cc3)c2)ccc1O [Example 40, Formic acid compound with 4-((1R)-2-{[2-(3-{[2-(4-fluorophenyl)ethoxy]methyl}phenyl)ethyl]amino}-1-hydroxyethyl)-2-(hydroxymethyl)phenol (1:1)]",< 1000
6,"NS(=O)(=O)c1cccc(CCOCc2cccc(CCNC[C@H](O)c3ccc(O)c(CO)c3)c2)c1 [Example 55, Formic acid compound with 3-[2-({3-[2-({(2R)-2-hydroxy-2-[4-hydroxy-3-(hydroxymethyl)phenyl]ethyl}amino)ethyl]benzyl}oxy)ethyl]benzenesulfonamide (1:1)]",< 1000
7,"O=S(=O)(c1cccc(CCCOCc2cccc(CCNC[C@H](O)c3ccc(O)c(CO)c3)c2)c1)C1CCCC1 [Example 31, Formic acid compound with 4-[(1R)-2-({2-[3-({3-[3-(cyclopentylsulfonyl)phenyl]propoxy}methyl)phenyl]ethyl}amino)-1-hydroxyethyl]-2-(hydroxymethyl)phenol (1:1)]",< 1000
8,"OCc1cc([C@@H](O)CNCCc2cccc(COCCOc3ccccc3)c2)ccc1O [Example 38, Formic acid compound with 2-(hydroxymethyl)-4-{(1R)-1-hydroxy-2-[(2-{3-[(2-phenoxyethoxy)methyl]phenyl}ethyl)amino]ethyl}phenol (1:1)]",< 1000
9,"OCc1cc([C@@H](O)CNCCc2cccc(COCCOCc3cccc(O)c3)c2)ccc1O [Example 32, Formic acid compound with 4-[(1R)-1-hydroxy-2-({2-[3-({2-[(3-hydroxybenzyl)oxy]ethoxy}methyl)phenyl]ethyl}amino)ethyl]-2-(hydroxymethyl)phenol (1:1)]",< 1000
10,"NC(=O)c1cccc(COCc2cccc(CCNC[C@H](O)c3ccc(O)c(CO)c3)c2)c1 [Example 53, Formic acid compound with 3-[({3-[2-({(2R)-2-hydroxy-2-[4-hydroxy-3-(hydroxymethyl)phenyl]ethyl}amino)ethyl]benzyl}oxy)methyl]benzamide (1:1)]",< 1000
11,"NS(=O)(=O)c1cccc(COCc2cccc(CCNC[C@H](O)c3ccc(O)c(CO)c3)c2)c1 [Example 64, 3-[({3-[2-({(2R)-2-Hydroxy-2-[4-hydroxy-3-(hydroxymethyl)phenyl]ethyl}amino)ethyl]benzyl}oxy)methyl]benzenesulfonamide acetate]",< 1000
12,"OCc1cc([C@@H](O)CNCCc2cccc(COCc3cccc(F)c3)c2)ccc1O [Example 49, Formic acid compound with 4-((1R)-2-{[2-(3-{[(3-fluorobenzyl)oxy]methyl}phenyl)ethyl]amino}-1-hydroxyethyl)-2-(hydroxymethyl)phenol (1:1)]",< 1000
13,"O=S(=O)(c1cccc(COCc2cccc(CCNC[C@H](O)c3ccc(O)c(CO)c3)c2)c1)C1CCCC1 [Example 35, Formic acid compound with 4-[(1R)-2-({2-[3-({[3-(cyclopentylsulfonyl)benzyl]oxy}methyl)phenyl]ethyl}amino)-1-hydroxyethyl]-2-(hydroxymethyl)phenol (1:1)]",< 1000
14,"O=S(=O)(c1cccc(CCOCc2cccc(CCNC[C@H](O)c3ccc(O)c(CO)c3)c2)c1)C1CCCC1 [Example 60, Formic acid compound with 4-[(1R)-2-({2-[3-({2-[3-(cyclopentylsulfonyl)phenyl]ethoxy}methyl)phenyl]ethyl}amino)-1-hydroxyethyl]-2-(hydroxymethyl)phenol (1:1)]",< 1000
15,"OCc1cc([C@@H](O)CNCCc2cccc(COCc3ccccc3F)c2)ccc1O [Example 48, Formic acid compound with 4-((1R)-2-{[2-(3-{[(2-fluorobenzyl)oxy]methyl}phenyl)ethyl]amino}-1-hydroxyethyl)-2-(hydroxymethyl)phenol (1:1)]",< 1000
16,"OCc1cc([C@@H](O)CNCCc2cccc(COCCCc3cccc(O)c3)c2)ccc1O [Example 28, Formic acid compound with 4-((1R)-1-hydroxy-2-{[2-(3-{[3-(3-hydroxyphenyl)propoxy]methyl}phenyl)ethyl]amino}ethyl)-2-(hydroxymethyl)phenol (1:1)]",< 1000
17,"Cc1cc(C)cc(COCc2cccc(CCNC[C@H](O)c3ccc(O)c(CO)c3)c2)c1 [Example 46, Formic acid compound with 4-((1R)-2-{[2-(3-{[(3,5-dimethylbenzyl)oxy]methyl}phenyl)ethyl]amino}-1-hydroxyethyl)-2-(hydroxymethyl)phenol (1:1)]",< 1000
18,"NC(=O)Nc1cccc(CCCCOCc2cccc(CCNC[C@H](O)c3ccc(O)c(CO)c3)c2)c1 [Example 58, Formic acid compound with N-{3-[4-({3-[2-({(2R)-2-hydroxy-2-[4-hydroxy-3-(hydroxymethyl)phenyl]ethyl}amino)ethyl]benzyl}oxy)butyl]phenyl}urea (1:1)]",< 1000
19,"[O-][S+](c1cccc(CCCCOCc2cccc(CCNC[C@H](O)c3ccc(O)c(CO)c3)c2)c1)C1CCCC1 (stereo partly drawn) [Example 36, Formic acid compound with 4-[(1R)-2-({2-[3-({4-[3-(cyclopentylsulfinyl)phenyl]butoxy}methyl)phenyl]ethyl}amino)-1-hydroxyethyl]-2-(hydroxymethyl)phenol (1:1)]",< 1000
20,"COc1cccc(COCCOCc2cccc(CCNC[C@H](O)c3ccc(O)c(CO)c3)c2)c1 [Example 17, Formic acid compound with 4-[(1R)-1-hydroxy-2-({2-[3-({2-[(3-methoxybenzyl)oxy]ethoxy}methyl)phenyl]ethyl}amino)ethyl]-2-(hydroxymethyl)phenol (1:1)]",< 1000
